The results in this text go back to US20080051418A1, “Arylalkanoic Acid Derivative” (priority 2004, published 2008).

Structures can show the parent of a compound that is named as a salt. Where two headings read alike, the source gives them in different places.

In general, EC50 refers to the concentration that produces a half-maximal response. A higher EC50 goes with weaker potency. A word on the melting point: it is the temperature of the solid-liquid transition.

In data set [1] the target is T1, PPARγ-RXRα heterodimer (Homo sapiens, UniProt P37231).
T1 construct: expressed in transfected cells; host or cells: CHO-K1
T1 sequence (P37231 1-505): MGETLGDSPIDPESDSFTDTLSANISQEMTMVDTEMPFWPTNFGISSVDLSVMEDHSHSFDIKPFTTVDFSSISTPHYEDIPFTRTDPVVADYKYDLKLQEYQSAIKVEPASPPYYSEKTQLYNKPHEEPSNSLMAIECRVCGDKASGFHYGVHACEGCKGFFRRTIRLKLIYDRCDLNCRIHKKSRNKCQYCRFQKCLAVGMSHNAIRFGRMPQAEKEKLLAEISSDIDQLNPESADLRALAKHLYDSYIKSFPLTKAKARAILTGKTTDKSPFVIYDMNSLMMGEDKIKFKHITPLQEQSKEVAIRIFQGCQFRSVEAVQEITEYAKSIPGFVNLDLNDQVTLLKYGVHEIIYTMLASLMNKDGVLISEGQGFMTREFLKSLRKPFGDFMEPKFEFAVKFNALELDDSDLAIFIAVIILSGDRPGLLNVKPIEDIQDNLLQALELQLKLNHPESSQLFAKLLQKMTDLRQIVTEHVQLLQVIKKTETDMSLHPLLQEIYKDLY
T1 sequence (P19793 1-462 partner): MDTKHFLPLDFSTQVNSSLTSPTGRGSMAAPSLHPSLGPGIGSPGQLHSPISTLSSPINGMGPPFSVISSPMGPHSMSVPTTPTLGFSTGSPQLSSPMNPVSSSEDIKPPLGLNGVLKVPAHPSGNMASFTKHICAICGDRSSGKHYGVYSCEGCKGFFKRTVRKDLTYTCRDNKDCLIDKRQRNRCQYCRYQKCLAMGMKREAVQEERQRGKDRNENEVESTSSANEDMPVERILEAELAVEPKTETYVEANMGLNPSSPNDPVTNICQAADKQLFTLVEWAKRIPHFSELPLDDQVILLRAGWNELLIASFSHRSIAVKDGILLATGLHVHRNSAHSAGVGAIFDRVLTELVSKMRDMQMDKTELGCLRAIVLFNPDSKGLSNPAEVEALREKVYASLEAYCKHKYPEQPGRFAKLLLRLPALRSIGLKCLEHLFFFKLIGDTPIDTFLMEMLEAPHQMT
As to the kind of experiment: PPARγ-RXRα heterodimer ligand activity (luciferase reporter). In kind it is cell-based. The following applies: PPARγ:RXRα:4ERPP/CHO-K1 cells, 18-24 hr, concentration showing 50% of the maximum induction rate. As for the experimental part:
The PPARγ:RXRα:4ERPP/CHO-K1 cells described in WO03/099793 were cultured in a Ham F12 medium [manufactured by Life Technologies, Inc., US] containing 10% calf fetal serum [manufactured by Life Technologies, Inc., US], sown in a 96-well white plate [manufactured by Corning Coster Corporation, US] at 2×10^4 cells/well, and incubated overnight in a carbon dioxide gas incubator at 37° C.
Then, the medium was removed from the 96 well white plate, 80 μl of Ham F12 medium containing 0.1% fatty acid-free bovine serum albumin (BSA) and a test compound (20 μl) were added, and the cells were incubated for 18-24 hr in a carbon dioxide gas incubator at 37° C. The medium was removed, 40 μl of PicaGene 7.5 (manufactured by Wako Pure Chemical Industries, Ltd.) diluted 2-fold with HBSS (HANKS' BALANCED SALT SOLUTION) [manufactured by BIO WHITTAKER, US] was added. After stirring, the luciferase activity was determined using the 1420 ARVO Multilabel Counter [manufactured by PerkinElmer, US].
The induction rate was calculated from the luciferase activity of each test compound based on the luciferase activity of the test compound non-administration group as 1. The test compound concentration and the induction rate were analyzed by PRISM [manufactured by GraphPad Software, Inc., US] to calculate EC50 value (compound concentration showing 50% of the maximum value of induction rate) of the test compound.

In data set [2] the test system is KKA^y mice. As to the kind of experiment: Blood glucose and blood lipid (triglyceride) lowering action in mice. In kind it is in vivo. The note with it: Mus musculus, po, 96 h, 0.005% in powder diet, 4 days, non-administration group = 100%. The source says: The test compound was mixed with a powder diet (CE-2, CLEA JAPAN, INC.) at a proportion of 0.005% (0.01% for the compound of Example 105) and freely given to KKA^y mice (9 to 12-week-old, 5 mice per group) which are obesity-insulin independent diabetes mellitus (type-2 diabetes) models, for 4 days. During this period, water was freely given. The blood was drawn from the orbital venous plexus. Glucose and triglyceride in the plasma separated from the blood were quantitated using L Type Wako Glu2 (Wako Pure Chemical Industries, Ltd.) and L Type Wako TG•H (Wako Pure Chemical Industries, Ltd.), respectively, according to an enzyme method.

Setting [3] is: lowering rate of plasma glucose, read-out: hypoglycemic action (%).
Setting [4] is: lowering rate of plasma triglyceride, read-out: hypolipidemic action (%).

In turn, `CC(C)Oc1cc(CCCOc2nn(Cc3ccccc3)cc2CC(=O)O)n(Cc2ccc(Cl)cc2Cl)n1` [Example 86, (1-benzyl-3-{3-[1-(2,4-dichlorobenzyl)-3-isopropoxy-1H-pyrazol-5-yl]propoxy}-1H-pyrazol-4-yl)acetic acid] returned a melting point of 108 to 110 °C. The compound further registered an EC50 in data set [1] of 2.5 nM. Further, the inhibition in vivo at 0.005 % in data set [2] (setting [3]) stood at 51%. Also, the inhibition in vivo at 0.005 % in data set [2] (setting [4]) worked out at 51%.

In data set [1], `Cc1cc(C(F)(F)F)ccc1Cn1nc(OC(C)C)cc1CCCOc1nn(Cc2ccccc2)cc1CC(=O)O` [Example 78, [1-benzyl-3-(3-{3-isopropoxy-1-[2-methyl-4-(trifluoromethyl)benzyl]-1H-pyrazol-5-yl}propoxy)-1H-pyrazol-4-yl]acetic acid] registered an EC50 of 1.3 nM. The inhibition in vivo at 0.005 % turned out to be 63% in data set [2] (setting [3]) and 55% in data set [2] (setting [4]).

`COc1cccc(CC(=O)O)c1OCCCc1cc(OC(C)C)nn1C(C)c1ccc(Cl)cc1Cl` (centres unmarked) [Example 17, [2-(3-{1-[1-(2,4-dichlorophenyl)ethyl]-3-isopropoxy-1H-pyrazol-5-yl}propoxy)-3-methoxyphenyl]acetic acid] showed an EC50 in data set [1] of 6.2 nM. For the same compound, the inhibition in vivo at 0.005 % was found to be 57% in data set [2] (setting [3]) and 78% in data set [2] (setting [4]).

As for `COc1cccc(CC(=O)O)c1OCCCc1cc(OC(C)C)nn1Cc1ccccc1C` [Example 21, (2-{3-[3-isopropoxy-1-(2-methylbenzyl)-1H-pyrazol-5-yl]propoxy}-3-methoxyphenyl)acetic acid], in data set [1], the midpoint of the response, the EC50, lay at 41 nM. Besides, the results for the inhibition in vivo at 0.005 % in data set [2] (setting [3]) and in data set [2] (setting [4]) were 51% and 78%, respectively.

On to `CCn1nc(OCCCc2ccc(OCCOC)cc2Oc2ncc(C(F)(F)F)cc2Cl)cc1CCC(=O)O` [Example 149, 3-(3-{3-[2-{[3-chloro-5-(trifluoromethyl)pyridin-2-yl]oxy}-4-(2-methoxyethoxy)phenyl]propoxy}-1-ethyl-1H-pyrazol-5-yl)propanoic acid], for which the melting point lay within 101 to 103 °C. In data set [1], this compound showed an EC50 of 5 nM. Also, the inhibition in vivo at 0.005 % in data set [2] (setting [3]) stood at 57%. For the same compound, the inhibition in vivo at 0.005 % in data set [2] (setting [4]) was found to be 51%.

For `CCn1nc(OCCCc2ccc(OCCOC(C)C)cc2Oc2ncc(C(F)(F)F)cc2Cl)cc1CCC(=O)O` [Example 150, 3-(3-{3-[2-{[3-chloro-5-(trifluoromethyl)pyridin-2-yl]oxy}-4-(2-isopropoxyethoxy)phenyl]propoxy}-1-ethyl-1H-pyrazol-5-yl)propanoic acid], the melting point was in the range of 130.5 to 131.5 °C. Further, in data set [1], a half-maximal effect (EC50) was put at 2.6 nM. In data set [2] (setting [3]), the inhibition in vivo at 0.005 % came to 58%. Also, the inhibition in vivo at 0.005 % in data set [2] (setting [4]) was found to be 54%.

Regarding `COc1cccc(CC(=O)O)c1OCCCc1cc(OC(C)C)nn1Cc1ccc(F)cc1F` [Example 60, (2-{3-[1-(2,4-difluorobenzyl)-3-isopropoxy-1H-pyrazol-5-yl]propoxy}-3-methoxyphenyl)acetic acid], the inhibition in vivo at 0.005 % came to 54% in data set [2] (setting [3]) and 76% in data set [2] (setting [4]).

For `COc1cccc(CC(=O)O)c1OCCCc1cc(OC(C)C)nn1Cc1ccccc1Cl` [Example 61, (2-{3-[1-(2-chlorobenzyl)-3-isopropoxy-1H-pyrazol-5-yl]propoxy}-3-methoxyphenyl)acetic acid], a half-maximal response in data set [1] (EC50) required 25 nM. For the same compound, the inhibition in vivo at 0.005 % in data set [2] (setting [3]) was found to be 51%; in data set [2] (setting [4]), 90%.

Compound `CC(C)c1cc(CCCOc2nn(Cc3ccccc3)cc2CC(=O)O)n(Cc2ccc(C(F)(F)F)cc2Cl)n1` [Example 76, [1-benzyl-3-(3-{1-[2-chloro-4-(trifluoromethyl)benzyl]-3-isopropyl-1H-pyrazol-5-yl}propoxy)-1H-pyrazol-4-yl]acetic acid 1/2 calcium salt] had an EC50 in data set [1] of 1.5 nM. The inhibition in vivo at 0.005 % turned out to be 64% in data set [2] (setting [3]) and 57% in data set [2] (setting [4]).
